Test results from patent publication US20030176494A1, “Novel coumarin and chromene compounds and methods of preparation and use thereof for treating or preventing viral infections” (priority 2001, published 2003).
Values after ≈ are worked out from the molar mass of the structure shown. Read-outs that look alike come from different tables or passages of the source.

What was measured:
HBV = HBV replication in cultures of 2.2.15 cells (HBV DNA blot hybridization); assay type: cell-based
Procedure: Test compounds are then added daily for a continuous 9 day period. Culture medium (changed daily during the treatment period) is collected and stored for analysis of extracellular (virion) HBV DNA after 0, 3, 6, and 9 days of treatment. Treated cells are lysed 24 hours following day 9 of treatment for the analysis of intracellular HBV genomic forms. HBV DVA is then analyzed in a quantitative and qualitative manner for overall levels of HBV DNA (both extracellular and intracellular DNA) and the relative rate of HBV replication (intracellular DNA).
Both intracellular and extracellular HBV DNA are analyzed in order to (i) allow for verification of compound efficacy and (ii) provide possible data on the target site in the HBV replication pathway for the compound from examination of the pattern of viral replicative forms. The culture medium is changed daily during the treatment period to (i) prevent the buildup of potentially toxic metabolites derived from test compounds and (ii) provide an analysis of HBV virion production during discrete 24-hour intervals which enables a quantitative comparison of any effect on virion production.
The analysis of HBV DNA is performed using blot hybridization techniques (Southern and slot blot) and [^32P]-labeled HBV-specific probes. HBV DNA levels are measured by comparison to known amounts of HBV DNA standards applied to every nitrocellulose membrane (gel or slot blot). An AMBIS beta scanner, which measures the radioactive decay of the hybridized probes directly from the nitrocellulose membranes, is used for the quantitative analysis. Standard curves, generated by multiple analyses, are used to correlate CPM measurements made by the beta scanner with relative levels of target HBV DNA. The levels of HBV virion DNA released into the culture medium are analyzed by a slot blot hybridization procedure. HBV DNA levels are then compared to those at Day 0 to determine the effect of drug treatment.
The levels of RI and episomal monomers are used as an indicator of the relative level of HBV replication. Integrated HBV DNA is used to normalize the relative amounts of DNA in each lane because the levels of this class of HBV DNA would be expected to remain constant on a per cell basis. […] Inhibition of HBV DNA replication is indicated by the loss of RI without changes in the level of integrated HBV DNA.

VZV = VZV plaque reduction assay in human foreskin fibroblast cells; assay type: cell-based, Varicella Zoster Virus (Ellen strain); conditions: Human alphaherpesvirus 3, Fibroblast; read-out: Antiviral Activities (EC50) VZV
Procedure: [table] Two days prior to use, HFF cells are plated into six-well plates and incubated at 37° C. with 5% CO2 and 90% humidity. On the date of assay, the drug is made up at twice the desired concentration in 2×MEM and then serially diluted 1:5 in 2×MEM using six concentrations of drug. […] The media is then aspirated from the wells and 0.2 mL of virus is added to each well in duplicate with 0.2 mL of media being added to drug toxicity wells. The plates are then incubated for one hour with shaking every fifteen minutes. […] The drug agarose mixture is applied to each well in 2 mL volume and the plates then incubated for three days, after which the cells were stained with a 1.5% solution of neutral red. At the end of 4-6 hr incubation period, the stain is aspirated, and plaques counted using a stereomicroscope at 10× magnification. The procedure is essentially the same as for the HSV plaque assay described above with two exceptions: 1. After addition of the drug, the plates are incubated for ten days. 2.

HIV = assay: Anti-HIV evaluation by MTT-tetrazolium method (inhibition of CPE in MT-2 / CEM-SS cells); assay type: cell-based; conditions: Human immunodeficiency virus 1, CEM-SS; read-out: Antiviral Activities (EC50) HIV
Procedure: This example illustrates the anti-HIV activity of various coumarin and chromene compounds which were evaluated using the published MTT-tetrazolium methods^8. Retroviral agents AZT and DDC were used as controls for comparison purposes.
The cells used for screening were the MT-2 and the human T4-lymphoblastoid cell line, CEM-SS, and were grown in RPMI 1640 medium supplemented with 10% fetal (v/v) heat-inactivated fetal calf serum and also containing 100 units/mL penicillin, 100 μg/mL streptomycin, 25 mM HEPES and 20 μg/mL gentamicin. The medium used for dilution of drugs and maintenance of cultures during the assay was the same as above. The HTLV-IIIB and HTLV-RF were propagated in CEM-SS. The appropriate amounts of the pure compounds for anti-HIV evaluations were dissolved in DMSO, then diluted in medium to the desired initial concentration. The concentrations (M medium) employed were […]; 0.001 μM; 0.0032 μM; 0.01 μM; 0.032 μM; 0.1 μM; 0.32 μM; 1 μM; 3.2 μM; 10 μM; 32 μM; and 100 μM. Each dilution was added to plates in the amount of 100 μL/well. Drugs were tested in triplicate wells per dilution with infected cells while in duplicate wells per dilution with uninfected cells for evaluation of cytotoxicity. On day 6 (CEM-SS cells) and day 7 (MT-2 cells) post-infection, the viable cells were measured with a tetrazolium salt, MTT (5 mg/mL), added to the test plates. A solution of 20% SDS in 0.001 N HCl is used to dissolve the MTT formazan produced. The optical density value was a function of the amount of formazan produced which was proportional to the number of viable cells. The percent inhibition of CPE per drug concentration was measured as a test over control and expressed in percent (T/C %).

Measles Virus = assay: Measles virus antiviral assay (CPE inhibition, neutral red uptake, virus yield); assay type: cell-based, Measles virus strain CC; conditions: Measles morbillivirus
Rhinovirus = Rhinovirus antiviral assay (CPE inhibition, neutral red uptake, virus yield); assay type: cell-based; conditions: Enterovirus
EBV = EBV assay: superinfection of Raji or Daudi cells with P3HR-1, immunofluorescence for EA and VCA; assay type: cell-based, Epstein-Barr Virus (P3HR-1); conditions: human gammaherpesvirus 4; read-out: Antiviral Activities (EC50) EBV
From the text: There are two prototypes of infectious EBV. One is exemplified by the virus derived from supernatant fluids of the P3HR-1cell line. This cell line produces nontransforming virus that causes the production of early antigen (EA) after primary infection or superinfection of B cell lines. The other prototype is exemplified by the B-95-8 virus. This virus immortalized cord blood lymphocytes and induced tumors in marmosets. […] The virus used in our assays is P3HR-1.
Ramos is an exceptional B cell line derived from Burkitt's lymphoma tumor but containing no detectable EBV genome copies and is EBNA negative. Ramos/AW was obtained by in vitro infection of Ramos with the P3HR-1 virus and contains one resident EBV genome copy/cell. Raji is a Burkitt's lymphoma cell line containing 60 EBV genomes/cell, and will be the primary cell used for screening antiviral activity against EBV EA expression. Daudi is a low level producer that contains 152 EBV genome copies/cell. It spontaneously expresses EBV EA in 0.25%-0.5% of the cells. It will be used in follow-up studies to confirm activity. These cell lines respond to superinfection by EBV by expressing EA(D), EA(R), and VCA. All cell lines are maintained in RPMI-1640 medium supplemented by 10% FCS, L-glutamine and 100 μg/mL gentamicin. The cultures are fed twice weekly and the cell concentration adjusted to 3×10^5/mL. The cells are kept at 37° C. in a humidified atmosphere with 5% CO2.
Cells are infected with the P3HR-1 strain of EBV and the drugs to be tested are added after adsorption (45 minutes at 37° C.) and washing of the cell cultures. The cultures are incubated for two days in complete medium to allow viral gene expression. Following the 48 hr incubation period, the number of cells of each sample are counted and smears made. Monoclonal antibodies to the different EA components and VCA are then added to the cells incubated and washed. This is followed by a fluorescein conjugated rabbit anti-mouse Ig antibody; and the number of fluorescence positive cells in the smears are counted. The total number of cells in the cultures positive for EA or VCA are then calculated and compared.

[1] = test system: Respiratory Syncytial Virus; assay: Respiratory syncytial virus antiviral assay (CPE inhibition, neutral red uptake); assay type: cell-based, Respiratory syncytial virus strain Utah 89; conditions: human respiratory syncytial virus
[2] = test system: AZT-resistant G-9106 strain of HIV; conditions: cited from earlier work
HIV-1 = conditions: cited from earlier work
[3] = test system: pyridinone-resistant A17 virus; conditions: cited from earlier work
[4] = test system: human T-lymphoblastic cells (CEM-SS); conditions: cited from earlier work
[5] = CPE inhibition, read-out: Antiviral Activities (EC50) Measles (CPE)
[6] = neutral red (NR) dye uptake, read-out: Antiviral Activities (EC50) Measles (NR)
[7] = CPE inhibition, read-out: Antiviral Activities (EC50) Rhinovirus (CPE)
[8] = neutral red (NR) dye uptake, read-out: Antiviral Activities (EC50) Rhinovirus (NR)
[9] = CPE inhibition, read-out: Antiviral Activities (EC50) Respiratory Syncitial (CPE)
[10] = neutral red (NR) dye uptake, read-out: Antiviral Activities (EC50) Respiratory Syncitial (NR)
[11] = Hepatitis B virus; read-out: Antiviral Activities (EC50) HBV
[12] = readout not stated, read-out: Antiviral Activities (EC50) Rhinovirus

SMILES	EC50 (VZV) [µg/mL]	EC50 (HIV) [µg/mL]	EC50 (Measles Virus; [5]) [µg/mL]	EC50 (Measles Virus; [6]) [µg/mL]	EC50 (Rhinovirus; [7]) [µg/mL]	EC50 (Rhinovirus; [8]) [µg/mL]	EC50 (EBV) [µg/mL]	EC50 [1, 9] [µg/mL]	EC50 [1, 10] [µg/mL]	EC50 (HBV; [11]) [µg/mL]	further results
CCCc1cc(=O)oc2cc(OS(=O)(=O)c3ccc(C)cc3)cc(OS(=O)(=O)c3ccc(C)cc3)c12	> 20	> 3	3 (≈ 5.68 µM)	1 (≈ 1.89 µM)	2 (≈ 3.78 µM)	1 (≈ 1.89 µM)	> 50	2 (≈ 3.78 µM)	1 (≈ 1.89 µM)	–	EC50 (HBV; Hepatitis B virus, read-out: Antiviral Activities (EC50) HBV): > 5 µg/mL; EC50 (Measles Virus; read-out: Antiviral Activities (EC50) Measles (virus yield)): 3 µg/mL (≈ 5.68 µM)
CCCc1cc(=O)oc2cc(OCC(C)(C)C(=O)OC)c3c(c12)OC(C)(C)C=C3	> 20	2 (≈ 4.99 µM)	40 (≈ 99.9 µM)	30 (≈ 74.9 µM)	–	–	0.08 (≈ 0.2 µM)	–	–	> 4	EC50 (Rhinovirus; [12]): 25 µg/mL (≈ 62.4 µM); EC50 ([1]; readout not stated, read-out: Antiviral Activities (EC50) Respiratory Syncitial): > 100 µg/mL
CCCc1cc(=O)oc2c(C(=O)CC)c(O)c(C(=O)CC)c(O)c12	> 20	> 2	> 100	> 100	–	–	1.2 (≈ 3.61 µM)	20 (≈ 60.2 µM)	10 (≈ 30.1 µM)	> 3	EC50 (Rhinovirus; [12]): 0.39 µg/mL (≈ 1.17 µM)
CCC/C(=C/C(=O)OC)c1c(O)c2c(c3c1OC(C)(C)[C@H](O)[C@H]3O)O[C@H](C)[C@@H](C)[C@@H]2O	> 20	> 2	10 (≈ 22.9 µM)	20 (≈ 45.8 µM)	20 (≈ 45.8 µM)	5 (≈ 11.5 µM)	> 50	100 (≈ 229 µM)	> 100	> 4	–
CCCc1cc(=O)oc2c3c(c4c(c12)OC(C)(C)[C@H](O)[C@H]4O)O[C@H](C)[C@@H](C)[C@@H]3O	> 100	> 2.5	10 (≈ 24.7 µM)	100 (≈ 247 µM)	20 (≈ 49.4 µM)	50 (≈ 124 µM)	> 50	> 100	100 (≈ 247 µM)	> 4	–
CCCc1cc(=O)oc2c3c(c4c(c12)OC(C)(C)C(O)C4O)O[C@H](C)[C@@H](C)[C@@H]3O (stereo partly drawn)	> 20	> 8	10 (≈ 24.7 µM)	10 (≈ 24.7 µM)	10 (≈ 24.7 µM)	10 (≈ 24.7 µM)	9.5 (≈ 23.5 µM)	> 100	> 100	> 4	–
CCCc1cc(=O)oc2c3c(c4c(c12)OC(C)(C)[C@H](O)[C@H]4OC(=O)c1cccc(Cl)c1)O[C@H](C)[C@@H](C)C3=O	3.5 (≈ 6.47 µM)	> 3	3 (≈ 5.55 µM)	0.4 (≈ 0.739 µM)	0.1 (≈ 0.185 µM)	0.1 (≈ 0.185 µM)	29.2 (≈ 54 µM)	3 (≈ 5.55 µM)	4 (≈ 7.39 µM)	2.6 (≈ 4.81 µM)	EC50 (Rhinovirus; read-out: Antiviral Activities (EC50) Rhinovirus (virus yield)): 4 µg/mL (≈ 7.39 µM)
CCCc1cc(=O)oc2c3c(c4c(c12)OC(C)(C)C=C4)O[C@H](C)[C@@H](C)[C@@H]3O [(+)-calanolide A, (+)-Calanolide A]	–	–	–	–	–	–	–	–	–	–	activity against AZT-resistant G-9106 strain of HIV [2]: active; protection against the cytopathic effects of HIV-1 (HIV-1; down to a concentration of 0.1 μM): 100%; EC50 (HIV-1; human T-lymphoblastic cells (CEM-SS), read-out: EC50, HIV-1 replication in CEM-SS): 0.1 µM; activity against pyridinone-resistant A17 virus [3]: active; IC50 [4]: 20 µM
CCCc1cc(=O)oc2cc(OC(=O)C(C)(C)C)cc(O)c12 [Compound 7b, 5-Hydroxy-7-pivaloyloxy-4-propylcoumarin]	–	–	–	–	–	–	–	–	–	–	melting point: 158 to 160 °C
